From patent US9624239B2, “Protein kinase inhibitors” (Pharmascience Inc., priority 2011, dated 2017)

Columns and labels:
[1] = target: T1, histidine tagged recombinant human full-length Bruton Agammaglobulinemia Tyrosine Kinase (Btk) (Homo sapiens, UniProt Q06187); assay: Btk kinase inhibition assay (fluorescence polarization, KinEASE FP Fluorescein Green); type: biochemical; settings: 10 μM ATP, 250 μM substrate, 60 minutes, room temperature; Ki from IC50 by Cheng-Prusoff; read-out: ki50 (nM), Inhibition of Btk
T1 construct: recombinant human full-length Bruton Agammaglobulinemia Tyrosine Kinase (Btk); histidine tag
Procedure: Kinase Binding Btk and Lck Kinase Inhibition Assay
Fluorescence polarization-based kinase assays were performed in 384 well-plate format using histidine tagged recombinant human full-length Bruton Agammaglobulinemia Tyrosine Kinase (Btk) or histidine tagged recombinant Human Lymphocyte-Specific Protein Tyrosine Kinase (Lck) and a modified protocol of the KinEASE™ FP Fluorescein Green Assay supplied from Millipore. Kinase reaction were performed at room temperature for 60 minutes in presence of 250 μM substrate, 10 μM ATP and variable test article concentrations. The reaction was stopped with EDTA/kinease detection reagents and the polarization measured on a Tecan 500 instrument. From the dose-response curve obtained, the IC50 was calculated using Graph Pad Prisms® using a non-linear fit curve. The Km for ATP on each enzyme was experimentally determined and the Ki values calculated using the Cheng-Prusoff equation (see: Cheng Y, Prusoff W H. (1973) Relationship between the inhibition constant (K1) and the concentration of inhibitor which causes 50 percent inhibition (I50) of an enzymatic reaction”. Biochem Pharmacol 22 (23): 3099-108).
ki values are reported in Tables 2 and 3: • a—Less than 100 nM; b—less than 1000 nM; c—more than 1000 nM

mouse splenocytes = assay: Splenic cell proliferation assay (anti-IgM stimulated B cell proliferation, Cell Titer-Glo); type: cell-based; settings: Splenocyte; CD1 mouse splenocytes, 1 h pre-treatment, 2.5 ug/ml anti-IgM F(ab')2 for 72 h; read-out: EC50 (nM), Inhibition of splenic cell proliferation
Procedure: Splenic Cell Proliferation Assay
Splenocytes were obtained from 6 week old male CD1 mice (Charles River Laboratories Inc.). Mouse spleens were manually disrupted in PBS and filtered using a 70 μm cell strainer followed by ammonium chloride red blood cell lysis. Cells were washed, resuspended in Splenocyte Medium (HyClone RPMI supplemented with 10% heat-inactivated FBS, 0.5× non-essential amino acids, 10 mM HEPES, 50 uM beta mercaptoethanol) and incubated at 37° C., 5% CO2 for 2 h to remove adherent cells. Suspension cells were seeded in 96 well plates at 50,000 cells per well and incubated at 37° C., 5% CO2 for 1 h. Splenocytes were pre-treated in triplicate with 10,000 nM curves of Formula 1 compounds for 1 h, followed by stimulation of B cell proliferation with 2.5 ug/ml anti-IgM F(ab′)2 (Jackson ImmunoResearch) for 72 h. Cell proliferation was measured by Cell Titer-Glo Luminescent Assay (Promega). EC50 values (50% proliferation in the presence of compound as compared to vehicle treated controls) were calculated from dose response compound curves using GraphPad Prism Software.
EC50 values are reported in Table 4: • a—Less than 100 nM; b—less than 1000 nM; c—more than 1000 nM

T1 sequence (Q06187 whole entry): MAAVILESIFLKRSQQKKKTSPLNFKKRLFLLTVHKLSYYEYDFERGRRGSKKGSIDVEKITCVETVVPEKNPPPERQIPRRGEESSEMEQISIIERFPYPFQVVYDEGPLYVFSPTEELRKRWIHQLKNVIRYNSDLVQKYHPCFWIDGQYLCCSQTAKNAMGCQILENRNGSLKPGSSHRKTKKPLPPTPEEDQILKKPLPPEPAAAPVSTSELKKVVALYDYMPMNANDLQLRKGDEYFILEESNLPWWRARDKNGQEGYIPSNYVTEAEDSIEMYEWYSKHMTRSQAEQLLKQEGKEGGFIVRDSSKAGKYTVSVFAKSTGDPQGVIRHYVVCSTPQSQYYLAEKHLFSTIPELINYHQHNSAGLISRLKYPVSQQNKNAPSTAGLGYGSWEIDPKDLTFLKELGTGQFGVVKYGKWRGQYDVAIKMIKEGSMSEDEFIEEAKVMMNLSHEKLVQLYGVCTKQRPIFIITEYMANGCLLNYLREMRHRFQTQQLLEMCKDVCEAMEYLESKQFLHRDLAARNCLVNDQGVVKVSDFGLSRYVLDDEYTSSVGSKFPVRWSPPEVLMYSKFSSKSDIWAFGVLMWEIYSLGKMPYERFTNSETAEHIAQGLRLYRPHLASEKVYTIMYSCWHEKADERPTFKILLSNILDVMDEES

| Compound | Ki [1] [nM] | EC50 (mouse splenocytes) [nM] |
| --- | --- | --- |
| Nc1ncnc2c3c(n(-c4ccc(Oc5cccc(OCc6ccc(Cl)cc6)c5)cc4)c12)CCC3 [Compound 128] | < 100 | 100 to 1000 |
| CC(=O)Nc1cccc(COc2cccc(Oc3ccc(-n4c5c(c6ncnc(N)c64)CCC5)cc3)c2)c1 [Compound 130] | < 100 | 100 to 1000 |
| COc1ccc(COc2cccc(Oc3ccc(-n4c5c(c6ncnc(N)c64)C(C)OC5)cc3)c2)cc1 (centres unmarked) [Compound 104] | < 100 | 100 to 1000 |
| CC1OCc2c1c1ncnc(N)c1n2-c1ccc(Oc2cccc(OCCCN(C)C)c2)cc1 (centres unmarked) [Compound 73] | > 1000 | > 1000 |
| CC1OCc2c1c1ncnc(N)c1n2-c1ccc(Oc2cccc(OCCc3ccccc3)c2)cc1 (centres unmarked) [Compound 77] | < 100 | 100 to 1000 |
| CC1OCc2c1c1ncnc(N)c1n2-c1ccc(Oc2cccc(OCc3cccc(F)c3)c2)cc1 (centres unmarked) [Compound 99] | < 100 | 100 to 1000 |
| COc1ccc(OCc2cccc(Oc3ccc(-n4c5c(c6ncnc(N)c64)C(C)OC5)cc3)c2)cc1 (centres unmarked) [Compound 131] | < 100 | 100 to 1000 |
| COc1ccc(COc2cccc(Oc3ccc(-n4c5c(c6ncnc(N)c64)CCC5)cc3)c2)cc1 [Compound 129] | < 100 | 100 to 1000 |
| CC1OCc2c1c1ncnc(N)c1n2-c1ccc(Oc2ccc(C#N)cc2)cc1 (centres unmarked) [Compound 71] | > 1000 | > 1000 |
| CC1OCc2c1c1ncnc(N)c1n2-c1ccc(Oc2cccc(OCc3cccc(C(N)=O)c3)c2)cc1 (centres unmarked) [Compound 92] | < 100 | 100 to 1000 |
| CC1OCc2c1c1ncnc(N)c1n2-c1ccc(Oc2cccc(OCc3ccc(Cl)cc3)c2)cc1 (centres unmarked) [Compound 95] | < 100 | 100 to 1000 |
| Cc1ccc(Oc2ccc(-n3c4c(c5ncnc(N)c53)C(C)OC4)cc2)cc1 (centres unmarked) [Compound 79] | < 1000 | > 1000 |
| CCNc1cccc(Oc2ccc(-n3c4c(c5ncnc(N)c53)C(C)OC4)cc2)c1 (centres unmarked) [Compound 66] | < 1000 | 100 to 1000 |
| Cc1nc(COc2cccc(Oc3ccc(-n4c5c(c6ncnc(N)c64)C(C)OC5)cc3)c2)no1 (centres unmarked) [Compound 87] | < 100 | > 1000 |
| CC1OCc2c1c1ncnc(N)c1n2-c1ccc(Oc2cccc(OCc3cccc([N+](=O)[O-])c3)c2)cc1 (centres unmarked) [Compound 113] | < 100 | 100 to 1000 |
| CC1OCc2c1c1ncnc(N)c1n2-c1ccc(Oc2cccc(OCc3ccccc3C#N)c2)cc1 (centres unmarked) [Compound 96] | < 100 | < 100 |

Continued, in another order:

| Ki [1] [nM] | Compound | EC50 (mouse splenocytes) [nM] |
| --- | --- | --- |
| < 100 | CC1OCc2c1c1ncnc(N)c1n2-c1ccc(Oc2cccc(O[C@@H](C)c3ccccc3)c2)cc1 (some centres unmarked) [Compound 86] | > 1000 |
| < 100 | CC1OCc2c1c1ncnc(N)c1n2-c1ccc(Oc2cccc(OCc3ccccc3Cl)c2)cc1 (centres unmarked) [Compound 107] | < 100 |
| < 100 | CC(C)CC(=O)Nc1cccc(Oc2ccc(-n3c4c(c5ncnc(N)c53)C(C)OC4)cc2)c1 (centres unmarked) [Compound 114] | 100 to 1000 |
| < 100 | COc1ccccc1C(=O)Nc1cccc(Oc2ccc(-n3c4c(c5ncnc(N)c53)C(C)OC4)cc2)c1 (centres unmarked) [Compound 127] | 100 to 1000 |
| < 1000 | CCCC(=O)Nc1cccc(Oc2ccc(-n3c4c(c5ncnc(N)c53)C(C)OC4)cc2)c1 (centres unmarked) [Compound 126] | 100 to 1000 |
| < 100 | COc1ccccc1COc1cccc(Oc2ccc(-n3c4c(c5ncnc(N)c53)C(C)OC4)cc2)c1 (centres unmarked) [Compound 108] | 100 to 1000 |
| < 100 | CC(=O)Nc1cccc(COc2cccc(Oc3ccc(-n4c5c(c6ncnc(N)c64)C(C)OC5)cc3)c2)c1 (centres unmarked) [Compound 106] | 100 to 1000 |
| < 100 | CC1OCc2c1c1ncnc(N)c1n2-c1ccc(Oc2cccc(OCc3cccc(NC(=O)C4CC4)c3)c2)cc1 (centres unmarked) [Compound 133] | < 100 |
| < 1000 | CC1OCc2c1c1ncnc(N)c1n2-c1ccc(Oc2cccc(NS(=O)(=O)c3ccccc3)c2)cc1 (centres unmarked) [Compound 80] | > 1000 |
